Measured values: patent US20240148821A1, “PHARMACEUTICAL USE OF CYCLIC PEPTIDE COMPOUND” (CHUGAI SEIYAKU KABUSHIKI KAISHA, priority 2021, published 2024)
Numbered stars: 1 amine (or outer) side, 2 acyl side, 3 side chain; on linkers, the order of the positions; unused ones are H or OH. Bridge positions count the residues as written; N and C are the ends. Square brackets hold non-standard residues; d marks the D form. Peptide text beside a SMILES is read from it. * marks the point of attachment. hPhe(3-Cl-4-CF3) = N[C@@H](CCc1ccc(C(F)(F)F)c(Cl)c1)C(=O)O; NMePhe(4-CF3) = CN[C@@H](Cc1ccc(C(F)(F)F)cc1)C(=O)O; NMePhe(4-Cl) = CN[C@@H](Cc1ccc(Cl)cc1)C(=O)O; NMePhe(4-Me) = CN[C@@H](Cc1ccc(C)cc1)C(=O)O; Phe(2,6-F2) = N[C@@H](Cc1c(F)cccc1F)C(=O)O; X64 = O=C([C@H](Cc1ccc(Br)s1)N[*:1])[*:2]; X67 = O=C([C@@H]1CCC[C@H]1N[*:1])[*:2]; NMe4Pal = CN[C@@H](Cc1ccncc1)C(=O)O; NMeY = CN[C@@H](Cc1ccc(O)cc1)C(=O)O; NMeCha = CN[C@@H](CC1CCCCC1)C(=O)O; NMehLeu = CN[C@@H](CCC(C)C)C(=O)O; NMeChg = CN[C@H](C(=O)O)C1CCCCC1; NMeF = CN[C@@H](Cc1ccccc1)C(=O)O; NMeI = CC[C@H](C)[C@H](NC)C(=O)O; NMeD = CN[C@@H](CC(=O)O)C(=O)O; NMeL = CN[C@@H](CC(C)C)C(=O)O; NMeV = CN[C@H](C(=O)O)C(C)C; d(β3hA) = C[C@@H](N)CC(=O)O; NMeAbu = CC[C@H](NC)C(=O)O; NMeA = CN[C@@H](C)C(=O)O; NMeAib = CNC(C)(C)C(=O)O; Nle = CCCC[C@H](N)C(=O)O; Piperidide = C1CCN(*)CC1; Pyrrolidide = C1CCN(*)C1; Ac5c = NC1(C(=O)O)CCCC1; Aze = O=C(O)[C@@H]1CCN1; NcPrGly = O=C(O)CNC1CC1; Ac3c = NC1(C(=O)O)CC1; βAla = NCCC(=O)O; Sar = CNCC(=O)O

These molecules were tested on Human pancreatic cancer cell line AsPC-1 (G12D mutation Kras) (assay: AsPC-1 cell growth inhibition (AsPC-1 CGI)). Details: read-out: AsPC-1 cell growth inhibition, 50% growth inhibitory concentration (IC50 value); 96 hours, CellTiter-Glo, values classified in ranges.
Format: cell-based
Procedure: Test compounds were serially dilated with dimethyl sulfoxide, and 200 nL was then dispensed to a U-bottom 96-well plate using Labcyte Echo. […] The cell suspension was dispensed to a. plate containing a test compound at 100 μL per well and incubated at 37° C. in a 5% carbon dioxide gas incubator. 96 hours later, 80 μL of CellTiter-Glo (Promega) was added to each well and fluorescence was measured.

Question: For `CC[C@H](C)[C@@H]1NC(=O)[C@H](CC(C)C)N(C)C(=O)C[C@@H](C)NC(=O)[C@H](C(C)C)N(C)C(=O)C2(CC2)NC(=O)[C@@H]2CCCN2C(=O)[C@H](CCc2ccc(C(F)(F)F)c(Cl)c2)NC(=O)CN(C)C(=O)[C@H](CC2CCCCC2)N(C)C(=O)CN(C)C(=O)CN(C)C1=O` [Compound 1111] (cyclo([Ac3c][NMeV][d(β3hA)][NMeL]I[Sar][Sar][NMeCha][Sar][hPhe(3-Cl-4-CF3)]P)), which IC50 is on record?
Answer: > 500 nM

Question: How did the IC50 turn out when `CCCC[C@@H]1NC(=O)[C@H](Cc2c(F)cccc2F)NC(=O)CN(C)C(=O)[C@H](Cc2ccc(OC)cc2)N(C)C(=O)[C@@H]2CCN2C(=O)[C@H](C)N(C)C(=O)[C@H]([C@@H](C)CC)NC(=O)[C@H](CC)N(C)C(=O)C[C@@H](C(=O)N2CCCCC2)N(C)C(=O)[C@H](CC(C)C)NC(=O)C(C)(C)N(C)C1=O` [Compound 1187] ([NMeAbu]I[NMeA][Aze][NMeY](Me)[Sar][Phe(2,6-F2)][Nle][NMeAib]L[NMeD]-Piperidide; lactam N-11) was run?
Answer: > 500 nM

Question: For `CC[C@H](C)[C@@H]1NC(=O)[C@H](CC(C)C)N(C)C(=O)[C@@H]2CCC[C@H]2NC(=O)[C@H](C(C)C)N(C)C(=O)C2(CCCC2)NC(=O)[C@@H]2CCCN2C(=O)[C@H](CCc2ccc(C(F)(F)F)c(Cl)c2)NC(=O)CN(C)C(=O)[C@H](CC2CCCCC2)N(C)C(=O)CN(C)C(=O)CN(C)C1=O` [Compound 347] (cyclo([Ac5c][NMeV][X67][NMeL]I[Sar][Sar][NMeCha][Sar][hPhe(3-Cl-4-CF3)]P)), which IC50 is on record?
Answer: > 500 nM

Question: Which IC50 does the source give for `CCCC[C@@H]1NC(=O)[C@H](Cc2ccc(Br)s2)NC(=O)CN(C)C(=O)[C@H](Cc2ccc(Cl)cc2)N(C)C(=O)CN(C)C(=O)CN(C)C(=O)[C@H]([C@@H](C)CC)NC(=O)[C@H](CC(C)C)N(C)C(=O)C[C@@H](C(=O)N2CCCCC2)N(C)C(=O)[C@H](CC(C)C)NC(=O)C(C)(C)N(C)C1=O` [Compound 1216] ([NMeL]I[Sar][Sar][NMePhe(4-Cl)][Sar][X64][Nle][NMeAib]L[NMeD]-Piperidide; lactam N-11) here?
Answer: > 500 nM

Question: How did the IC50 turn out when `CC[C@H](C)[C@@H]1NC(=O)[C@H](CC(C)C)N(C)C(=O)C[C@@H](C)NC(=O)[C@H](C(C)C)N(C)C(=O)C2(CCCC2)NC(=O)[C@@H]2CCCN2C(=O)[C@H](CCc2ccc(C(F)(F)F)c(Cl)c2)NC(=O)CN(C)C(=O)[C@H](CC2CCCCC2)N(C)C(=O)CN(C)C(=O)CN(C2CC2)C1=O` [Compound 542] (cyclo([Ac5c][NMeV][d(β3hA)][NMeL]I[NcPrGly][Sar][NMeCha][Sar][hPhe(3-Cl-4-CF3)]P)) was run?
Answer: > 500 nM

Question: How did the IC50 turn out when `CC[C@H](C)[C@@H]1NC(=O)[C@H](CC(C)C)N(C)C(=O)C[C@@H](C(=O)N(C)C)N(C)C(=O)[C@H]([C@@H](C)CC)N(C)C(=O)[C@H](C)NC(=O)[C@H](Cc2ccncc2)N(C)C(=O)[C@H](CCc2ccc(C(F)(F)F)c(Cl)c2)NC(=O)CN(C)C(=O)[C@H](Cc2ccc(C)cc2)N(C)C(=O)[C@@H]2CCN2C(=O)[C@H](C)N(C)C1=O` [Compound 1973] ([NMeL]I[NMeA][Aze][NMePhe(4-Me)][Sar][hPhe(3-Cl-4-CF3)][NMe4Pal]A[NMeI][NMeD]-NMe2; lactam N-11) was run?
Answer: > 500 nM

Question: With `CC[C@H](C)[C@@H]1NC(=O)[C@H](CC(C)C)N(C)C(=O)C[C@@H](C(=O)N2CCCCC2)N(C)C(=O)[C@H](C2CCCCC2)N(C)C(=O)C2(CCCC2)NC(=O)[C@@H](C)NC(=O)[C@H](CCc2ccc(C(F)(F)F)c(Cl)c2)NC(=O)CN(C)C(=O)[C@H](CC2CCCCC2)N(C)C(=O)CN(C)C(=O)CN(C)C1=O` [Compound 277] ([NMeL]I[Sar][Sar][NMeCha][Sar][hPhe(3-Cl-4-CF3)][dA][Ac5c][NMeChg][NMeD]-Piperidide; lactam N-11) as the molecule, how does the IC50 read?
Answer: > 500 nM

Question: How did the IC50 turn out when `CC[C@H](C)[C@@H]1NC(=O)[C@H](CCC(C)C)N(C)C(=O)C[C@@H](C(=O)N2CCCC2)N(C)C(=O)[C@H]([C@@H](C)CC)N(C)C(=O)C2(CCCC2)NC(=O)[C@@H]2CCCN2C(=O)[C@H](CCc2ccc(C(F)(F)F)c(Cl)c2)NC(=O)CN(C)C(=O)[C@H](Cc2ccc(C(F)(F)F)cc2)N(C)C(=O)[C@@H]2CCN2C(=O)[C@H](C)N(C)C1=O` [Compound 1289] ([NMehLeu]I[NMeA][Aze][NMePhe(4-CF3)][Sar][hPhe(3-Cl-4-CF3)]P[Ac5c][NMeI][NMeD]-Pyrrolidide; lactam N-11) was run?
Answer: ≤ 20 nM

Question: For `CC[C@H](C)[C@@H]1NC(=O)CCNC(=O)[C@H](Cc2ccccc2)N(C)C(=O)[C@H](C2CCCCC2)N(C)C(=O)C2(CCCC2)NC(=O)[C@@H]2CCCN2C(=O)[C@H](CCc2ccc(C(F)(F)F)c(Cl)c2)NC(=O)CN(C)C(=O)[C@H](CC2CCCCC2)N(C)C(=O)CN(C)C(=O)CN(C)C1=O` [Compound 1007] (cyclo([Ac5c][NMeChg][NMeF][βAla]I[Sar][Sar][NMeCha][Sar][hPhe(3-Cl-4-CF3)]P)), which IC50 is on record?
Answer: > 500 nM
